# Assay results published in paper PMC7848139, “Novel Hybrid CHC from β-carboline and N-Hydroxyacrylamide Overcomes Drug-Resistant Hepatocellular Carcinoma by Promoting Apoptosis, DNA Damage, and Cell Cycle Arrest” (Frontiers in Pharmacology, 2021).
# How the values were obtained:
# [1] = system: Huh7; experiment: MTT antiproliferative assay, Huh7; format: cell-based; settings: Homo sapiens, Huh-7, 72 h, mean ± SD of three experiments, read-out: In vitro antiproliferative activity (IC50) Huh7
# Method: (§1) Briefly, appropriate cells (1 × 10^4 cells/mL) were placed into 96-well plates in 100 μL of DMEM medium overnight. Then adding 100 μL of evaluated compounds into individual well for 72 h while 0.1% DMSO aqueous solution was treated as the negative control. After incubation with 30 μl MTT (5 mg/mL) for 4 h in all well, and ELISA plate reader measured absorbance of each well at 570 nm. Then calculating cytotoxicity effect of evaluated compounds through the formula: Cell inhibitory percentage (%) = (1−OD of treatment group/OD of control) × 100%.
# [2] = system: HCT116; experiment: MTT antiproliferative assay, HCT116; format: cell-based; settings: Homo sapiens, HCT-116, 72 h, mean ± SD of three experiments, read-out: In vitro antiproliferative activity (IC50) HCT116
# Method: as §1
# [3] = system: SMMC-7721; experiment: MTT antiproliferative assay, SMMC-7721; format: cell-based; settings: Homo sapiens, 72 h, mean ± SD of three experiments, read-out: In vitro antiproliferative activity (IC50) SMMC-7721
# Method: as §1
# [4] = system: Bel7402/5-FU xenografts; experiment: In vivo tumor growth inhibition, Bel7402/5-FU xenograft; design: species or system BALB/c nude mice; settings: 70 μmol/kg, intraperitoneal daily, 21 days, n = 6; saline group 1.47 ± 0.21 g
# Method: All animal experimental protocols were approved by the Animal Research and Care Committee of Nantong University. Female BALB/c nude mice at 5∼6 week-old were subcutaneously implanted with 1×10^6 Bel7402/5-FU cells. […] The body mass and tumor size of nude mice were surveyed every three days during the 21 days study. Tumor size (mm^3) of nude mice was determined using the formula: tumor size = ½ (Length×Width^2). Finally, these tumor-bearing mice were sacrificed, and their tumors were removed and weighed at the end of the 21 days.
# Data (means ± SD) were from tumor volumes or weight of each group of mice (n = 6 per group). *p < 0.01 vs. control group.
# [5] = system: CT-DNA; experiment: UV-visible spectroscopy titrations with CT DNA; format: binding, calf; settings: 20 μM compound, equal increments of CT-DNA, 25°C
# Method: The ultraviolet spectrophotometer (UV2500, Shimadzu, Tokyo, Japan) recorded UV–visible spectroscopy under titrations at 25°C. Tris buffer (5 mM) was used to prepare Stock solutions of CT DNA (20 μM, calf thymus DNA) comprising ideal structure of double stranded DNA. Dissolving synthesized derivative in 1:1000 DMSO/Milli Q water to prepare stock solutions of them (20 μM). UV–visible absorption titrations were carried out with addition of 100 μl CT DNA solution to 4 ml solution of tested compound in quartz cuvette each time interval. Until the absorption band of complex containing synthesized derivative and CT DNA kept at a stable wavelength after adding CT DNA successfully for five times, titrations were finished. Finally, spectrophotometer noted the absorption spectra (250–500 nm).
# FIGURE 7 UV-visible absorption spectra of CHC after adding equal amounts of CT DNA. Arrows indicate changes in absorbance with increasing concentrations of DNA [CHC] = 20 μM.
# [6] = system: Bel7402/5-FU cells; experiment: Cell apoptosis analysis by flow cytometry; format: cell-based, human; settings: 5.0 μM, 72 h
# Method: Briefly, Bel7402/5-FU cells were cultured in DMEM at 37°C with 5% CO2 for 12 h. […] Then Bel7402/5-FU cells were collected and using APC-Annexin V and 7-AAD to stain these cells under the condition of 37°C for 15 min. Flow cytometry analysis (Calibur, BD, United States) decide the percentage of apoptotic cells according to APC signal (FL4) (excitation wavelength at 633 nm; emission wavelength at 660 nm) and 7-AAD staining signal (FL3) (excitation wavelength at 488 nm; emission wavelength at 647 nm). WinList 3D (7.1) analyzed the data and Excel 2016 plotted the histogram.
# FIGURE 5 CHC causes apoptosis of Bel7402/5-FU cells. […] The data (mean ± SD, percentage of apoptotic cells) represent the average of three separate experiments. *p < 0.01 vs. control.
Compound,IC50 [1],IC50 [2],IC50 [3],tumor mass at end of treatment [4],change of UV-visible absorption upon adding CT-DNA [5],rate of Annexin V+ Bel7402/5-FU cellular apoptosis [6]
"COc1ccc2c(c1)[nH]c1c(C)nccc12 [Harmine, harmine, reference compound]",41.9 ± 5.06 µM,43.8 ± 3.85 µM,47.6 ± 5.12 µM,,,
"O=C(CCCCCCC(=O)Nc1ccccc1)NO [SAHA, Vorinostat, reference compound]",,,,0.76 ± 0.11 g,slightly increased,30.8%
